Experimental data from the METLIN SMRT retention time set (Domingo-Almenara et al. 2019).

Assay: gradient 5% acetonitrile 3 min, to 50% in 2 min, to 85% in 15 min, held 3 min, 100 µL/min
Settings: column: Zorbax Extend-C18 2.1 x 50 mm; eluents: water / acetonitrile, 0.1% formic acid
How it was run: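 Each retention time is based on an adduct peak selected computationally and verified by manual inspection. Measurements used HPLC–quadrupole time-of-flight mass spectrometry in positive and negative ionization mode on mixtures of ~100 pure standards. Chromatography ran on a Zorbax Extend-C18 column (2.1 × 50 mm, 1.8 μm) at 100 μL/min with water and acetonitrile, each containing 0.1% formic acid, and dead and dwell volumes of 40 μL and 900 μL.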

Row | SMILES | RP-LC retention time [s]
1 | O=C(Cc1ccccc1Br)NC1CCN(c2cc(-c3ccccc3)[nH]n2)C1 (stereo not given) | 665
2 | Cc1cc(C(=O)N2CCC3(CCC3O)CC2)no1 (stereo not given) | 636
3 | Cc1cccc(OCc2nnc(SCC(=O)Nc3nc(-c4ccccc4)cs3)o2)c1 | 1070
4 | O=C(NCc1ccccc1)c1ncccn1 | 609
5 | CCC(NC(=O)C1CCCN(c2cnc3nccnc3c2)C1)c1ccc(OC)cc1 (stereo not given) | 735
6 | CC1CCCN(C(=O)C2CCN(S(=O)(=O)c3ccc4c(c3)CCCC(=O)N4)CC2)C1 (stereo not given) | 731
7 | CCOc1ccc(-c2nc(NC(=O)c3sc(C)nc3C)sc2C)cc1 | 976
8 | CCCNC(=O)C1CCCN(c2ncnc3c2nc2n3CCCCC2)C1 (stereo not given) | 650
9 | COc1ccc(-c2noc(-c3ccc(N4CCN(c5ncccn5)CC4)nc3)n2)cc1 | 1150
10 | COc1c(C(=O)N2CCN(CC(C)C)CC2)sc2cc(Cl)ccc12 | 697
11 | CC(C)(C)c1ccc(C(=O)NCc2ccco2)cc1 | 873
12 | CCc1cc(=O)n(CC(=O)Nc2cccc(C)c2)c(N)n1 | 600
13 | Cc1cccc(NC(=O)N2CCCC2c2nc(-c3cccc(F)c3)no2)c1 (stereo not given) | 1020
14 | CC(C)Cn1c(=O)c(N2CCN(C(=O)NCc3ccco3)CC2)nc2ccncc21 | 616
15 | CN1CCC(NC(=O)C2CCN(c3nc4ccc(-c5ccsc5)nc4s3)CC2)CC1 | 640
16 | CN1CCN(CCNC(=O)c2nc3ccccn3c2-c2ccc(Cl)cc2)CC1 | 603
17 | CC(C)CC(=O)N1CCC(Oc2nccnc2N(C)C)C1 (stereo not given) | 691
18 | COC(=O)c1ccc(C(=O)NCC2(c3cccs3)CCCC2)cc1 | 971
19 | COc1ccc(C(=O)N2CCc3cn(C)c4cccc(c34)C2)c(OC)c1 | 875
20 | CCN1CCC2(CC1)N=C(c1ccccc1)CC(c1cccc(OC)c1O)N2 (stereo not given) | 584
21 | CCCN1C(=O)COc2ccc(-c3noc(-c4ccccc4C(F)(F)F)n3)cc21 | 1230
22 | CCc1ccc(CNC(=O)C2CCCN(c3ccc(=O)n(-c4cccc(F)c4)n3)C2)cc1 (stereo not given) | 937
23 | CCOC(=O)c1ccc(NC2=NS(=O)(=O)C(c3ccc(OC)cc3)=C2C)cc1 | 928

Row | SMILES | RP-LC retention time [s]
24 | CCc1ccc(S(=O)(=O)N2CCCN(C)c3ccccc32)cc1 | 1100
25 | O=C(NCCC1=CCCCC1)C1CCN(C(=O)c2cccn2-c2cccnc2)CC1 | 1090
26 | C=CCn1ccc2c(OCC(=O)NC3CCCC3)cccc2c1=O | 788
27 | O=C(Cn1nc2c3ccc(Cl)cc3ncn2c1=O)NCc1ccccc1 | 716
28 | O=C(Cc1csc(Nc2cccc(Cl)c2)n1)N1CCN(C(=O)c2ccco2)CC1 | 718
29 | CCOC(=O)C1=C(CN2CCN(c3ccccn3)CC2)NC(=O)NC1c1cccc(OC)c1OC (stereo not given) | 615
30 | CCOc1cc(C(=O)N2CCCC2c2nc(-c3ccc(C)cc3)no2)cc(OCC)c1OCC (stereo not given) | 1200
31 | Cc1nc(CCNC(=O)[C@H]2CCCN2C(=O)c2ccc(Cl)cc2)cs1 | 674
32 | Cc1c(NC(=O)C2CCC2)c(=O)n(-c2ccccc2)n1C | 596
33 | COCCc1noc(C2CN(C(=O)c3ccsc3)C2)n1 | 654
34 | CCc1nc(-c2csc(S(=O)(=O)N3CCCC(C(=O)NCc4ccc(C)cc4)C3)c2)no1 (stereo not given) | 1060
35 | CC(=O)[C@H]1CCC2C3CC[C@H]4C[C@H](O)CC[C@]4(C)C3CC[C@@]21C (stereo not given in full) | 1270
36 | Cc1ccc(-n2nnnc2CNC(=O)c2ccc([N+](=O)[O-])o2)cc1C | 745
37 | COc1ccc(OC)c(CNC(=O)C2CCCN(c3ccc(=O)n(-c4ccc(C)c(Cl)c4)n3)C2)c1 (stereo not given) | 924
38 | CN(C)c1cccc(-c2nn3c(-c4ccc5ccccc5n4)nnc3s2)c1 | 1070
39 | CCOc1ccc(C(O)CN2CCN(c3ccccc3)CC2)cc1 (stereo not given) | 653
40 | Cc1ccccc1-c1ccc(N2CCC(C(=O)Nc3ccc4c(c3)OCCO4)CC2)nn1 | 634
41 | NC1=NC(=O)/C(=C/c2ccccc2OCC(=O)Nc2ccc(F)cc2)S1 | 660
42 | CCCn1ccc2sc(C)c(C(=O)NCC(C)C)c2c1=O | 800
43 | Cc1ccc(N2CCN(CC(O)COc3ccc([N+](=O)[O-])cc3)CC2)cc1 (stereo not given) | 601
44 | COC(=O)c1cccc(-c2nc(-c3nnn(Cc4ccccc4)c3C)no2)c1 | 1010
45 | CCOc1ccc(NC(=O)N2CCCC2c2nc(-c3ccccc3OC)no2)cc1 (stereo not given) | 859
46 | O=C(Nc1ccc(F)c(F)c1)C1CCCN(S(=O)(=O)Cc2ccccc2)C1 (stereo not given) | 998

Row | SMILES | RP-LC retention time [s]
47 | CCOc1ccccc1NC(=O)CSc1ccc(N2CCCC(C(=O)NC3CC3)C2)nn1 (stereo not given) | 705
48 | Cn1c(N2CCCC(C(=O)N3CCN(c4ncccn4)CC3)C2)cc(=O)n(C)c1=O (stereo not given) | 618
49 | Cc1ccc(CNC(=O)c2ccc3ccnc(N4CCN(c5ccc(F)cc5)CC4)c3c2)o1 | 828
50 | Cc1ccccc1NC(=O)Cn1nc(N2CCC(C)CC2)c2ccccc2c1=O | 1110
51 | CCc1noc(NC(C)=O)c1-c1ccc(C)c(S(=O)(=O)Nc2cc(OC)ccc2OC)c1 | 819
52 | COc1ccc(OCC(=O)N2CCN(c3cc(=O)n(C(C)C)c(=O)n3C(C)C)CC2)cc1 | 846
53 | O=S(=O)(c1ccc(F)cc1)N1CCc2nc(-c3ccc(F)cc3)ncc2C1 | 1070
54 | COc1cccc(C(=O)Nc2nc(-c3ccc(OC)c([N+](=O)[O-])c3)c(C)s2)c1 | 1070
55 | O=C(CC1CC1)N1CC(F)(F)C[C@H]1c1nnc(-c2ccccc2)o1 | 804
56 | O=C(c1ccc2nc(N3CCOCC3)sc2c1)N1CCN(c2ccccn2)CC1 | 563
57 | O=C(Nc1cnc(N2CCCCC2)nc1)c1ccccc1Br | 902
58 | Cc1ccsc1CCNC(=O)C1CCN(S(=O)(=O)c2ccc3c(c2)sc(=O)n3C)CC1 | 872
59 | COc1cccc(C(=O)Nc2nc(-c3ccc4c(c3)NC(=O)CO4)c(C)s2)c1 | 877
60 | O=C(c1ccc2ncnc(N3CCCCC3)c2c1)N1CCCCC1 | 636
61 | COC(=O)c1onc(C(=O)c2ccccc2)c1C(=O)OC | 931
62 | CC(C)N1CCN(c2ncc(C(=O)Nc3ccccc3)c(N)n2)CC1 | 591
63 | CC(C)c1cc(C(=O)Nc2ccccc2F)no1 | 1020
64 | COc1cc(NC(=O)Nc2cccc(-c3nccnc3N3CCCC3)c2)cc(OC)c1 | 596
65 | CCOc1ccccc1N1CCN(S(=O)(=O)c2nn(C)cc2C(=O)NCCC(C)C)CC1 | 1080
66 | CCc1nc(-c2cc(S(=O)(=O)N3CCC(C(=O)N4CCN(CC)CC4)CC3)c(C)s2)no1 | 673
67 | O=C1CN(Cc2ccccc2)[C@H]2CS(=O)(=O)C[C@H]2N1c1ccc(Br)cc1 | 845
68 | Cc1ccc(NC(=O)Cn2c(=O)n(-c3ccc(F)cc3)c3ncccc32)cc1 | 880
69 | CC1=NN(c2ccccc2)C(=O)C1C(=O)c1ccccc1Br (stereo not given) | 1040

Row | SMILES | RP-LC retention time [s]
70 | CN1C(=O)c2cccnc2Sc2cc(NC(=O)c3ccccc3Cl)ccc21 | 781
71 | CCCCNC(=O)CCC(=O)N1CCCn2nc(-c3cn(C)c4ccccc34)cc21 | 778
72 | COc1ccccc1-c1nnc(C2CCN(S(C)(=O)=O)CC2)s1 | 734
73 | COc1ccc(NS(=O)(=O)c2ccc(N)cc2)nn1 | 572
74 | COc1ccc(CN2CCC(C3CCNC3)CC2)c(OC)c1 (stereo not given) | 548
75 | O=C(NCc1ccc2c(c1)CCCN2C(=O)C1CC1)c1ccc(Br)o1 | 840
76 | Cc1ccc2nc(C(=O)NCCN3CCCCC3C)cn2c1 (stereo not given) | 552
77 | Cc1ccccc1Nc1c(-c2ccccc2O)nc2ccccn12 | 701
78 | COC(=O)c1cccc(NS(=O)(=O)c2cc3n(c2)CCCNC3=O)c1 | 641
79 | CCn1cc(CN2CCC(C(=O)NCCCN3CCOCC3)CC2)c2cc(Cl)ccc21 | 585
80 | O=c1ccc(N2CCCN(S(=O)(=O)c3ccccc3F)CC2)nn1-c1ccc(Cl)cc1 | 925
81 | CC(C)c1cc(C2NNC(=O)N2c2ccc3c(ccn3C)c2)c(O)cc1O (stereo not given) | 796
82 | Cc1nc2cc(N3CCCC(C(=O)NCCN4CCCCCC4)C3)cnc2nc1C (stereo not given) | 592
83 | CNC(=O)c1sc2nc(-c3cccc(F)c3)c(NCCOC)n2c1C | 734
84 | O=C(Cn1ccn2nc(-c3ccc(F)cc3)c(CO)c2c1=O)N1CCCC1 | 683
85 | CCCCCCC(=O)Nc1nc(-c2ccc(C)cc2)cs1 | 1190
86 | Cc1ccc(N2C(=O)N(Cc3ccccc3)S(=O)(=O)c3cccnc32)cc1 | 1060
87 | COc1ccc(C(=O)NC2(c3nc(C)no3)CCCCC2)cc1F | 854
88 | COc1ccc(NC(=O)c2nc(N3CCC(C)CC3)c3cnn(C)c3n2)cc1 | 966
89 | O=C(Cn1nc2c3cc(-c4ccc(F)cc4)nn3ccn2c1=O)N1CCCc2ccccc21 | 968
90 | COc1cc(C2C(C(=O)N3CCCC3)CCC(=O)N2c2ccc3c(c2)OCO3)cc(OC)c1OC (stereo not given) | 665
